Test results reported in patent publication US20250154169A1, “COMPOUNDS AND METHODS FOR MODULATING SPLICING” (REMIX THERAPEUTICS INC., priority 2021, published 2025).

Legend:
[1] = test system: HTT mRNA; test: Splicing RT-qPCR assay, HTT canonical (CJ) and alternative (AJ) junction mRNA; type: cell-based, human; details: Homo sapiens, A673 or K562 cells, 24 hours compound treatment; for IC50: 24 h, read-out: HTT CJ (IC50, decrease in canonical junction mRNA); for AC50: read-out: HTT AJ (AC50, increase in alternative junction mRNA)
Procedure, shortened: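 Canonical (CJ) and alternative-exon (AJ) junction mRNAs quantified by one-step RT-qPCR in cell lysates, normalized to housekeeping PPIA for A673 and GAPDH or GUSB for K562. Cells were exposed 24 h at 37 °C to 11-point 3-fold compound series from 10 uM final, with DMSO at or below 0.25%.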

[2] = test system: HTT; test: Protein abundance, HiBit-assay system (Promega), HTT; type: cell-based; details: Table 6; HiBiT-modified K562 cells, 24 hours
From the text: (§1) In some embodiments, a compound of Formula (I) or (II) or a pharmaceutically acceptable salt thereof, e.g., as described herein, modulates the expression of a target protein (e.g., HTT or MYB) in a reference cell or sample. In an embodiment, a compound of Formula (I) or (II) or a pharmaceutically acceptable salt thereof, e.g., as described herein, increases the expression of a target protein (e.g., HTT or MYB) in a reference cell or sample. In an embodiment, a compound of Formula (I) or (II) or a pharmaceutically acceptable salt thereof, e.g., as described herein, decreases the expression of a target protein (e.g., HTT or MYB) in a reference cell or sample. The effect of an exemplary compound of Formula (I) or (II) on protein abundance may be measured using a standard assay for measuring protein abundance, such as the HiBit-assay system (Promega). In this assay, percent response for each respective cell line may be as calculated at each compound concentration as follows: % response=100*(S−PC)/(NC−PC). For the normalized response at each concentration, a four-parameter logistical regression may be fit to the data and the response may be interpolated at the 50% value to determine a concentration for protein abundance at 50% (IC50) an untreated control. In an embodiment, a compound of Formula (I) or (II) or a pharmaceutically acceptable salt thereof, e.g., as described herein, has a protein abundance response less than 100 nM. In an embodiment, a compound of Formula (I) or (II) or a pharmaceutically acceptable salt thereof, e.g., as described herein, has a protein abundance response between 100-1000 nM. In an embodiment, a compound of Formula (I) or (II) or a pharmaceutically acceptable salt thereof, e.g., as described herein, has a protein abundance response greater than 1000 nM. In an embodiment, a compound of Formula (I) or (II) or a pharmaceutically acceptable salt thereof, e.g., as described herein, has a protein abundance response greater than 10 uM. In an embodiment, a compound of Formula (I) or (II) or a pharmaceutically acceptable salt thereof, e.g., as described herein, modulates the protein abundance of a target protein by about 1%, 5%, 10%, 15%, 20%, 25%, 30%, 35%, 40%, 45%, 50%, 55%, 60%, 65%, 70%, 75%, 80%, 85%, 90%, 95%, 99% or more, e.g., compared with a reference compound.

[3] = test system: MYB; test: Protein abundance, HiBit-assay system (Promega), MYB; type: cell-based; details: Table 6; HiBiT-modified K562 cells, 24 hours
From the text: as §1

IC50 [1] [µM] | IC50 [2] [µM] | IC50 [3] [µM] | Compound | AC50 [1] [µM]
1 to 10 | 1 to 10 | 1 to 10 | Cc1cn2cc(NC(=O)c3ccc(N4CC[C@@H](NC56CC(C5)C6)C4)c4cn(C)nc34)cc(F)c2n1 [Compound 568, 4-[(3R)-3-{bicyclo[1.1.1]pentan-1-ylamino}pyrrolidin-1-yl]-N-{8-fluoro-2-methylimidazo[1,2-a]pyridin-6-yl}-2-methylindazole-7-carboxamide] | 1 to 10
> 10 | 1 to 10 | < 0.1 | CCn1cc2c(N3CCC(NC4CC4)C3)cc(F)c(C(=O)Nc3cc(F)c4nc(C)cn4c3)c2n1 (stereo not drawn) [Compound 569, 4-[3-(cyclopropylamino)pyrrolidin-1-yl]-2-ethyl-6-fluoro-N-{8-fluoro-2-methylimidazo[1,2-a]pyridin-6-yl}indazole-7-carboxamide] | 1 to 10
0.1 to 1 | 0.1 to 1 | < 0.1 | Cc1cn2cc(NC(=O)c3c(F)cc(N4CC[C@@H](NC5CC5)C4)c4cn(C)nc34)cc(F)c2n1 [Compound 571, 4-[(3R)-3-(cyclopropylamino)pyrrolidin-1-yl]-6-fluoro-N-{8-fluoro-2-methylimidazo[1,2-a]pyridin-6-yl}-2-methylindazole-7-carboxamide] | 0.1 to 1
> 10 | > 10 | 1 to 10 | Cc1cn2cc(NC(=O)c3ccc(N4CC[C@@H](NCc5cnc(Cl)nc5)C4)c4cn(C)nc34)cc(F)c2n1 [Compound 573, 4-[(3R)-3-{[(2-chloropyrimidin-5-yl)methyl]amino}pyrrolidin-1-yl]-N-{8-fluoro-2-methylimidazo[1,2-a]pyridin-6-yl}-2-methylindazole-7-carboxamide] | > 10
> 10 | > 10 | 0.1 to 1 | Cc1cn2cc(NC(=O)c3ccc(N4CCC(C)(NC(C)C)C4)c4cn(C)nc34)cc(F)c2n1 (stereo not drawn) [Compound 574] | > 10
> 10 | 1 to 10 | 1 to 10 | CCn1cc2c(N3CCNCC3)ccc(C(=O)Nc3cc(F)c4ncccc4c3)c2n1 [Compound 575] | > 10
